Results reported in patent US8501936B2 (priority 2009, dated 2013).
pIC50: −log10 of the molar value.

Legend:
human JAK2 = human JAK2 (Homo sapiens (Human), UniProt O60674); conditions: read-out: JAK2 IC50
human FAK = human FAK (Homo sapiens (Human), UniProt Q05397); conditions: read-out: FAK IC50
Chain of human FAK (Q05397 whole entry): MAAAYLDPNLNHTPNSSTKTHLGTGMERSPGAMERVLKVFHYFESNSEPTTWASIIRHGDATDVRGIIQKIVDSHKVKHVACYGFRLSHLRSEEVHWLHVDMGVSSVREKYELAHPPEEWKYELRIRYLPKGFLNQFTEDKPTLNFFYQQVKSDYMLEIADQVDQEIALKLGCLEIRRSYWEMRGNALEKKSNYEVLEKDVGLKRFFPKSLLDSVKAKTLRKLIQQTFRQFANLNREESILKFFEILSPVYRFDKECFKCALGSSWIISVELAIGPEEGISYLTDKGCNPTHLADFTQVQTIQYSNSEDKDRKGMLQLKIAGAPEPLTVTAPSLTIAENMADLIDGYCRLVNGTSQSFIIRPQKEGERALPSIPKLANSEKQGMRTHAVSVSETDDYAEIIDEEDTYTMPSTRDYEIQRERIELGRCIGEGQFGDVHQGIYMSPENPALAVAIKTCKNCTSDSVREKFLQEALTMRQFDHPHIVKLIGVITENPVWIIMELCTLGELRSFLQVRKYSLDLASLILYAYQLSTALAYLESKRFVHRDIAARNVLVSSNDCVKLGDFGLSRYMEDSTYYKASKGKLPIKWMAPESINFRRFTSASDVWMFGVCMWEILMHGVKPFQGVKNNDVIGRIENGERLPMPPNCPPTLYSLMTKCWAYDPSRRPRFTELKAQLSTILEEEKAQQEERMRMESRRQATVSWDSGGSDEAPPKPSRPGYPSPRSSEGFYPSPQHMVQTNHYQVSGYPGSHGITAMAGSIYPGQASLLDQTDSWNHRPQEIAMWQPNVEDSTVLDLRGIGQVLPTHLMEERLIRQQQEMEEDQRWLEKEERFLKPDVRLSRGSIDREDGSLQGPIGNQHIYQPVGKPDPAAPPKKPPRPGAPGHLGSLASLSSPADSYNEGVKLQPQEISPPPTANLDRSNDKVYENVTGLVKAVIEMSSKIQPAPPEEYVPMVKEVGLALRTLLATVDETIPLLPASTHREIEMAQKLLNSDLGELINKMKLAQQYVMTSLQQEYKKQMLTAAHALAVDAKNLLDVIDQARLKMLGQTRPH

Chain of human JAK2 (O60674 815-1132): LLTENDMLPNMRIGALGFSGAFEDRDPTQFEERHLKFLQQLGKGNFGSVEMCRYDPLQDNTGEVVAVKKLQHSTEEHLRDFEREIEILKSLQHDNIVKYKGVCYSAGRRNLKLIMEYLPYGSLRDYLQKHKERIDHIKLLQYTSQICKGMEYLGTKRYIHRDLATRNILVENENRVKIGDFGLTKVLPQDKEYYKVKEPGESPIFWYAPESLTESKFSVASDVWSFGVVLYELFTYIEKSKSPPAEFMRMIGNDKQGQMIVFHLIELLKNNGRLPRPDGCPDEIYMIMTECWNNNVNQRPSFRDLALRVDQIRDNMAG

Row | SMILES | pIC50 (human JAK2) | pIC50 (human FAK)
1 | CN1CCN(c2ccc(Nc3nc4c(-c5ccc(C(F)(F)F)cc5)cccn4n3)cc2)CC1 [Example 64, [4-(4-Methyl-piperazin-1-yl)-phenyl]-[8-(4-trifluoromethyl-phenyl)-[1,2,4]triazolo[1,5-a]pyridin-2-yl]-amine] | 8.51 | 5.90
2 | CN1CCN(c2ccc(Nc3nc4c(-c5ccccc5S(C)(=O)=O)cccn4n3)cc2)CC1 [Example 66, [8-(2-Methanesulfonyl-phenyl)-[1,2,4]triazolo[1,5-a]pyridin-2-yl]-[4-(4-methyl-piperazin-1-yl)-phenyl]-amine] | 5.88 | 5.00
3 | CN1CCN(c2ccc(Nc3nc4cccc(-c5ccc(CN6CCS(=O)(=O)CC6)cc5)n4n3)cc2)CC1 [Example 70, 5-{4-[(1,1-dioxidothiomorpholin-4-yl)methyl]phenyl}-N-[4-(4-methylpiperazin-1-yl)phenyl][1,2,4]triazolo[1,5-a]pyridin-2-amine] | 8.96 | 6.54
4 | CN1CCN(c2cccc(Nc3nc4cccc(-c5ccc(CN6CCS(=O)(=O)CC6)cc5)n4n3)c2)CC1 [Example 71, 5-{4-[(1,1-dioxidothiomorpholin-4-yl)methyl]phenyl}-N-[3-(4-methylpiperazin-1-yl)phenyl][1,2,4]triazolo[1,5-a]pyridin-2-amine] | 9.10 | 6.30
5 | CN1CCN(c2ccc(Nc3nc4c(Nc5ccccc5S(C)(=O)=O)cccn4n3)cc2)CC1 [Example 72, N(8)-(2-Methanesulfonyl-phenyl)-N(2)-[4-(4-methyl-piperazin-1-yl)-phenyl]-[1,2,4]triazolo[1,5-a]pyridine-2,8-diamine] | 8.08 | 6.42
6 | CS(=O)(=O)c1ccc(-c2cccc3nc(Nc4ccc(OCCN5CCCC5)cc4)nn23)cc1 [Example 73, [5-(4-Methanesulfonyl-phenyl)-[1,2,4]triazolo[1,5-a]pyridin-2-yl]-[4-(2-pyrrolidin-1-yl-ethoxy)-phenyl]-amine] | 8.68 | 6.64
7 | CC(C)(C)OC(=O)N1CCN(c2ccc(Nc3nc4cccc(-c5ccc(S(C)(=O)=O)cc5)n4n3)cc2)CC1 [Example 75, 4-{4-[5-(4-Methanesulfonyl-phenyl)-[1,2,4]triazolo[1,5-a]pyridin-2-ylamino]-phenyl}-piperazine-1-carboxylic acid tert-butyl ester] | 8.89 | 6.44
8 | CS(=O)(=O)c1cccc(-c2cccc3nc(Nc4ccc(N5CCOCC5)cc4)nn23)c1 [Example 78, [5-(3-Methanesulfonyl-phenyl)-[1,2,4]triazolo[1,5-a]pyridin-2-yl]-(4-morpholin-4-yl-phenyl)-amine] | 8.49 | 5.82
9 | CN1CCN(c2ccc(Nc3nc4cccc(-c5ccc(S(C)(=O)=O)cc5)n4n3)cc2)CC1 [Example 81, [5-(4-Methanesulfonyl-phenyl)-[1,2,4]triazolo[1,5-a]pyridin-2-yl]-[4-(4-methyl-piperazin-1-yl)-phenyl]-amine] | 8.16 | 6.38
10 | CN1CCN(c2ccc(Nc3nc4cccc(-c5cccc(S(C)(=O)=O)c5)n4n3)cc2)CC1 [Example 82, [5-(3-Methanesulfonyl-phenyl)-[1,2,4]triazolo[1,5-a]pyridin-2-yl]-[4-(4-methyl-piperazin-1-yl)-phenyl]-amine] | 8.04 | 6.23
11 | CN1CCN(c2ccc(Nc3nc4cccc(-c5cccc(NS(C)(=O)=O)c5)n4n3)cc2)CC1 [Example 83, N-(3-{2-[4-(4-Methyl-piperazin-1-yl)-phenylamino]-[1,2,4]triazolo[1,5-a]pyridin-5-yl}-phenyl)-methanesulfonamide] | 7.72 | 6.26
12 | CN1CCN(c2ccc(Nc3nc4cccc(-c5ccc(NS(C)(=O)=O)cc5)n4n3)cc2)CC1 [Example 84, N-(4-{2-[4-(4-Methyl-piperazin-1-yl)-phenylamino]-[1,2,4]triazolo[1,5-a]pyridin-5-yl}-phenyl)-methanesulfonamide] | 8.55 | 5.64
13 | CN1CCN(Cc2ccc(Nc3nc4cccc(-c5ccc(S(C)(=O)=O)cc5)n4n3)cc2)CC1 [Example 86, [5-(4-Methanesulfonyl-phenyl)-[1,2,4]triazolo[1,5-a]pyridin-2-yl]-[4-(4-methyl-piperazin-1-ylmethyl)-phenyl]-amine] | 8.77 | 6.58
14 | CN1CCN(Cc2ccc(Nc3nc4cccc(-c5cccc(S(C)(=O)=O)c5)n4n3)cc2)CC1 [Example 88, [5-(3-Methanesulfonyl-phenyl)-[1,2,4]triazolo[1,5-a]pyridin-2-yl]-[4-(4-methyl-piperazin-1-ylmethyl)-phenyl]-amine] | 7.93 | 5.99
15 | CN1CCN(c2ccc(NC(=O)Nc3nc4cccc(-c5cccc(S(C)(=O)=O)c5)n4n3)cc2)CC1 [Example 89, 1-[5-(3-Methanesulfonyl-phenyl)-[1,2,4]triazolo[1,5-a]pyridin-2-yl]-3-[4-(4-methyl-piperazin-1-yl)-phenyl]-urea] | 6.64 | 5.05
16 | COc1ccc(Nc2nc3cccc(-c4ccc(S(C)(=O)=O)cc4)n3n2)cc1 [Example 91, [5-(4-Methanesulfonyl-phenyl)-[1,2,4]triazolo[1,5-a]pyridin-2-yl]-(4-methoxy-phenyl)-amine] | 8.72 | 5.59
17 | CN1CCN(c2cccc(Nc3nc4cccc(-c5ccc(S(C)(=O)=O)cc5)n4n3)c2)CC1 [Example 92, [5-(4-Methanesulfonyl-phenyl)-[1,2,4]triazolo[1,5-a]pyridin-2-yl]-[3-(4-methyl-piperazin-1-yl)-phenyl]-amine] | 8.55 | 5.90
18 | CS(=O)(=O)c1ccc(-c2cccc3nc(Nc4cccc(S(C)(=O)=O)c4)nn23)cc1 [Example 94, (3-Methanesulfonyl-phenyl)-[5-(4-methanesulfonyl-phenyl)-[1,2,4]triazolo[1,5-a]pyridin-2-yl]-amine] | 8.03 | 5.52
19 | COc1ccc(Nc2nc3cccc(-c4ccc(CN5CCS(=O)(=O)CC5)cc4)n3n2)cc1 [Example 95, 5-{4-[(1,1-dioxidothiomorpholin-4-yl)methyl]phenyl}-N-(4-methoxyphenyl)[1,2,4]triazolo[1,5-a]pyridin-2-amine] | 9.00 | 5.70
20 | CN1CCN(c2ccc(Nc3nc4c(-c5ccc(S(C)(=O)=O)cc5)cc(C(F)(F)F)cn4n3)cn2)CC1 [Example 104, [8-(4-Methanesulfonyl-phenyl)-6-trifluoromethyl-[1,2,4]triazolo[1,5-a]pyridin-2-yl]-[6-(4-methyl-piperazin-1-yl)-pyridin-3-yl]-amine] | 6.03 | 6.17
21 | CN1CCN(c2cccc(N(c3cccc(N4CCN(C)CC4)c3)c3nc4c(-c5ccc(S(C)(=O)=O)cc5)cc(F)cn4n3)c2)CC1 [Example 105, [6-Fluoro-8-(4-methanesulfonyl-phenyl)-[1,2,4]triazolo[1,5-a]pyridin-2-yl]-bis-[3-(4-methyl-piperazin-1-yl)-phenyl]-amine] | 6.49 | 5.98
22 | CN1CCN(c2ccc(Nc3nc4c(-c5ccc(S(C)(=O)=O)cc5)cc(F)cn4n3)cc2)CC1 [Example 106, [6-Fluoro-8-(4-methanesulfonyl-phenyl)-[1,2,4]triazolo[1,5-a]pyridin-2-yl]-[4-(4-methyl-piperazin-1-yl)-phenyl]-amine] | 7.50 | 5.52
